The target of assay [1] is T1, Carbonic anhydrase 2 (Homo sapiens, UniProt P00918).
Description: Kinetic constant for binding human carbonic anhydrase II (Kon=Kd x Koff)
For assay [2], the target named is T1, Carbonic anhydrase 2. Kind of assay: Dissociation constant against human carbonic anhydrase II at 37 degree Centigrade.
Assay [3] concerns the target T1, Carbonic anhydrase 2. This is another data set of the same source.
Description: Kinetic constant for binding human carbonic anhydrase II
Assay [4] concerns the target T1, Carbonic anhydrase 2. Kind of assay: Dissociation constant was determined against human carbonic anhydrase II at 37 degree Centigrade in experiment 2.
Assay [5] concerns the target T1, Carbonic anhydrase 2. Kind of assay: Dissociation constant was determined against human carbonic anhydrase II at 37 degree Celsius in experiment 1.

“And” between values parts separate entries of the source, which are not always exact repeats. Equal values may be shown once. Where a SMILES comes first, the peptide text is derived from it. [ ]: non-standard residue; d: D form. The star is where a group is joined. Benzoyl(4-SO2NH2) = NS(=O)(=O)c1ccc(C(=O)*)cc1; Phe(4-Cl) = N[C@@H](Cc1ccc(Cl)cc1)C(=O)O; Nle = CCCC[C@H](N)C(=O)O

For seven compounds, k on, Kd and k off results are on record in ChEMBL document CHEMBL1128987, “Benzenesulfonamide-peptide conjugates as probes for secondary binding sites near the active site of carbonic anhydrase” (Bioorg Med Chem Lett, 1996).

As for `NS(=O)(=O)c1ccc(C(=O)NCC(=O)NCC(=O)NCC(=O)NCC(=O)O)cc1` ({Benzoyl(4-SO2NH2)}-GGGG-OH), the k on in assay [1] was determined as 250000 M⁻¹ s⁻¹. In addition, the Kd in assay [2] is 390 nM and 360 nM. Moreover, in assay [3], the k off was found to be 0.09 s⁻¹.

For the compound `NS(=O)(=O)c1ccc(C(=O)NC(Cc2ccc(Cl)cc2)C(=O)O)cc1` (configuration not stated), in assay [2], the Kd was 15 nM and 14 nM. In addition, in assay [3], the k off turned out to be 0.022 s⁻¹.

In turn, `CCCCC(NC(=O)c1ccc(S(N)(=O)=O)cc1)C(=O)O` (configuration not stated) came in with a Kd in assay [2] of 5 nM. In assay [3], this compound gave a k off of 0.011 s⁻¹.

For `NS(=O)(=O)c1ccc(C(=O)NCC(=O)O)cc1`, the dissociation constant (Kd) came to 330 nM in assay [4] and 310 nM in assay [5]. In assay [3], this compound gave a k off of 0.12 s⁻¹.

For the compound `CCCC[C@H](NC(=O)CNC(=O)CNC(=O)CNC(=O)c1ccc(S(N)(=O)=O)cc1)C(=O)O` ({Benzoyl(4-SO2NH2)}-GGG[Nle]-OH), the k on in assay [1] was found to be 420000 M⁻¹ s⁻¹. Also, the Kd in assay [2] is 190 nM and 220 nM. The k off in assay [3] amounted to 0.093 s⁻¹.

In assay [1], `NS(=O)(=O)c1ccc(C(=O)NCC(=O)NCC(=O)NCC(=O)N[C@@H](Cc2ccc(Cl)cc2)C(=O)O)cc1` ({Benzoyl(4-SO2NH2)}-GGG[Phe(4-Cl)]-OH) displayed a k on of 850000 M⁻¹ s⁻¹. The dissociation constant Kd in assay [2] is 96 nM and 99 nM. The compound also returned a k off in assay [3] of 0.084 s⁻¹.

`CC(C)CC(NC(=O)CNC(=O)c1ccc(S(N)(=O)=O)cc1)C(=O)O` (configuration not stated) gave a Kd in assay [2] of 130 nM.

The term Kd denotes the equilibrium constant for the complex coming apart. Higher therefore signals a looser complex.
